6 molecules from ChEMBL document CHEMBL1201862, “PubChem BioAssay data set” (2004) can be followed below.

Activity calls are given as the source filed them. For most assays here, no stated cut-off is given here; in the data, actives have a measured EC50 and inactives only a lower limit.

Assay [1] deals with NAD-dependent protein deacylase sirtuin-5, mitochondrial (Homo sapiens, UniProt Q9NXA8). Kind of assay: SIRT5 desuccinylase inhibitors, dose response, biochemical, fluorescence imaging, cherry-pick, set 5 (AID 720591).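 Further: desuccinylation of succinyl peptide AMC substrate read as fluorescence after trypsin release; potency of inhibitors that lower fluorescence and may act on trypsin instead.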
A short description of assay [2]: inhibitors of firefly luciferase expression or activity, dose response, H4 neuroglioma cells, luminescence (AID 1990). The assay is classed as functional, cell-based.
Assay [3] relates to BJ. As to the kind of experiment: cytotoxicity toward BJ-TERT fibroblasts, dose response, cell-based, RAS-independent, luminescence (AID 1933). The class given is functional. As to conditions: Homo sapiens.
Assay [4] is described as follows: Luminescence Cell-Based Dose Response HTS to Identify Inhibitors of 5'UTR Stem-Loop Driven Prion Protein mRNA Translation in H4 Neuroglioblastoma Cells. [Related pubchem assays: 1827 (Project Summary), 1813 (Primary HTS)]. The assay is classed as functional.
Assay [5] is described as follows: inhibitors of SNCA 5'UTR-driven reporter translation, confirmation, H4 neuroglioma cells, luminescence (AID 1988). The class given is functional, cell-based.
In assay [6] the test system is BJ. As to the kind of experiment: cells. The class given is functional, cell-based. As to conditions: Homo sapiens.
Assay [7] is described as follows: inhibitors of intracellular T. cruzi replication, confirmation, NIH3T3 host cells, beta-gal luminescence (AID 2044).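 Further: intracellular parasites grown in NIH/3T3 mouse fibroblasts as host cells; luminescent beta-galactosidase reporter signal from transgenic T. cruzi replicating inside host cells; inhibitors lower the luminescence signal.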 The class given is functional, cell-based.
Assay [8] concerns BJ. As to the kind of experiment: cytotoxicity toward BJ-TERT-LT-ST fibroblasts, dose response, cell-based, RAS-independent, luminescence (AID 1935).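 Further: BJ fibroblasts immortalized with TERT plus LT and ST oncogenes.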 The assay is classed as functional. As to conditions: Homo sapiens.
A short description of assay [9]: cytotoxicity toward DRD oncogenic fibroblasts, dose response, cell-based, non-viral oncogenic, luminescence (AID 1934). The assay is classed as functional. The conditions noted are these: Homo sapiens.
A short description of assay [10]: HEK293 cell cytotoxicity, dose response, cytotoxicity control, dry powder samples (AID 720567). The class given is functional, cell-based.
In assay [11] the target is Luciferin 4-monooxygenase (Photinus pyralis, UniProt P08659). Kind of assay: firefly luciferase enzyme inhibitors, dose response, biochemical, luminescence (AID 1891).
Assay [12] is described as follows: Luminescence Cell-Based Dose Confirmation HTS to Identify Inhibitors of Platelet Dense Granule Release. [Related pubchem assays: 1663 (Primary HTS), 1678 (Summary of Project)]. The class given is functional.
Assay [13] concerns the target Alkaline phosphatase, placental type (Homo sapiens, UniProt P05187). As to the kind of experiment: PLAP enzyme inhibitors, confirmation, biochemical, luminescence (AID 1512). The class given is functional.
In assay [14] the target is T1, Alkaline phosphatase, tissue-nonspecific isozyme (Homo sapiens, UniProt P05186).
T1 sequence (P05186 whole entry): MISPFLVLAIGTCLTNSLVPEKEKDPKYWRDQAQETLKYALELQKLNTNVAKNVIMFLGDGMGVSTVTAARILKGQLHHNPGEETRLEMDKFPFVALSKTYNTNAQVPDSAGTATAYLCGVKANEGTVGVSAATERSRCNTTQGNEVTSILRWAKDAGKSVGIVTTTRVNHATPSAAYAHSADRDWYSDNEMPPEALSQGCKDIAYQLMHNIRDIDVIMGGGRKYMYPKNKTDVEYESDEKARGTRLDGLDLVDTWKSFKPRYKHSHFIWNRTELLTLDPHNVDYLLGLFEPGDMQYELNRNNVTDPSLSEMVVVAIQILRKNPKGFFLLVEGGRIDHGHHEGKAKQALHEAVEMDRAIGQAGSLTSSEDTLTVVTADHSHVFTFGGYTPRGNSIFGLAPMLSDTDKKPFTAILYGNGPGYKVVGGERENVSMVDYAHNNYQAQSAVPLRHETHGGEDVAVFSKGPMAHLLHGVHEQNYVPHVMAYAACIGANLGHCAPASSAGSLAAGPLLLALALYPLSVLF
As to the kind of experiment: human TNAP enzyme inhibitors, SAR follow-up, biochemical, luminescent, dose response (AID 1056).

Assay [15] concerns the target Oxysterols receptor LXR-beta (Homo sapiens, UniProt P55055). The assay is classed as functional, cell-based.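 Further: Cell-based luminescence dose-response assay of agonist activity at LXR, run as a confirmatory counterscreen to a daf-12 agonist screen; HEK293 cells with Gal4-LXR fusion and GAL4-driven luciferase reporter; agonist potency from rising luciferase signal of a Gal4-LXR reporter.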
Assay [16] can be described thus: cells.
Assay [17] has as its target T2, RNA-binding protein pos-1 (Caenorhabditis elegans, UniProt G5EF15).
T2 sequence (G5EF15 whole entry): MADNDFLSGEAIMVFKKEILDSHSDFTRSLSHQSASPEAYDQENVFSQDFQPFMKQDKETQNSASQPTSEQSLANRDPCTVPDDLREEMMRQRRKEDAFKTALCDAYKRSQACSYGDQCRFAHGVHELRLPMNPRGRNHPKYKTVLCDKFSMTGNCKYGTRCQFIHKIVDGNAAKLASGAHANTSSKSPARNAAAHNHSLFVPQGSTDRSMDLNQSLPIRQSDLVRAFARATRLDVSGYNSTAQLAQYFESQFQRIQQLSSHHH
As to the kind of experiment: inhibitors of POS-1/mex-3 RNA binding, dose response, biochemical, fluorescence polarization (AID 1964).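 Further: purified POS-1 fused to maltose binding protein made in E. coli; potency of compounds blocking POS-1 binding to fluorescent RNA.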

The target in assay [18] is T3, Zinc finger protein mex-5 (Caenorhabditis elegans, UniProt Q9XUB2).
T3 sequence (Q9XUB2 whole entry): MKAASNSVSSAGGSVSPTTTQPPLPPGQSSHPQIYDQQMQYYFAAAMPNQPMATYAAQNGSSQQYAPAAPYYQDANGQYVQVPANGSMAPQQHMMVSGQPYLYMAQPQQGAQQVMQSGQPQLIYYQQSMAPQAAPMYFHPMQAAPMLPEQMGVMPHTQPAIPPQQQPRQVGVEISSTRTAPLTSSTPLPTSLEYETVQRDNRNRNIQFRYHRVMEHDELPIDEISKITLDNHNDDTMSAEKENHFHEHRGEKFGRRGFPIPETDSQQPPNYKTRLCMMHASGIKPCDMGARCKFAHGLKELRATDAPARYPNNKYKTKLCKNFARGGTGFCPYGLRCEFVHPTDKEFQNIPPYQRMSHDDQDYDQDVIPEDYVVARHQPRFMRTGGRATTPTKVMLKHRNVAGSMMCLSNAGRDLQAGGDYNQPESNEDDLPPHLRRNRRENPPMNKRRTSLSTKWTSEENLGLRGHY
Kind of assay: MEX-5/TCR-2 RNA interaction inhibitors, dose response, biochemical, C. elegans, fluorescence polarization (AID 1960). For orientation: Fluorescence polarisation rises when a labelled molecule tumbles more slowly, as on binding a larger partner.

Assay [19] is described as follows: cells. This is another data set of the same source.
A short description of assay [20]: A549 cell cytotoxicity, dose response, cytotoxicity control, cherry-picks, 26 µM top dose (AID 1053119). The assay is classed as functional, cell-based.
Assay [21] is described as follows: inhibitors of fibronectin matrix deposition, dose response, AH1F cells, Alexa488-FN fluorescence, cherry-picks (AID 1035475). The class given is functional, cell-based.
The nature of assay [22]: Late stage assay provider results from the probe development effort to identify inhibitors of the Plasmodium falciparum M18 Aspartyl Aminopeptidase (M18AAP): radiolabel-based cell-based dose response assay to identify compounds that inhibit P. falciparum growth in RBCs, Set 2.. The assay is classed as functional.

A word on the AC50: it is the concentration giving half of the maximal activity seen. The term EC50 denotes the concentration that produces a half-maximal response. By IC50 is commonly meant the concentration that inhibits the measured activity by half.

Chain of NAD-dependent protein deacylase sirtuin-5, mitochondrial (Q9NXA8 whole entry): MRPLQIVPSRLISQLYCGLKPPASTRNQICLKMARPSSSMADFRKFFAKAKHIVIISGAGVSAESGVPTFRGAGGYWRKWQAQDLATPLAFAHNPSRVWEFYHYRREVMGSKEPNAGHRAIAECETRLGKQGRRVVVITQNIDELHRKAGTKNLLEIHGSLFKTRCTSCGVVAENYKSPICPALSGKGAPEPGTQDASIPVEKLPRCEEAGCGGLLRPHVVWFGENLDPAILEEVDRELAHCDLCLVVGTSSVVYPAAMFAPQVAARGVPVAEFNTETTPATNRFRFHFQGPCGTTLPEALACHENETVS
Chain of Alkaline phosphatase, placental type (P05187 whole entry): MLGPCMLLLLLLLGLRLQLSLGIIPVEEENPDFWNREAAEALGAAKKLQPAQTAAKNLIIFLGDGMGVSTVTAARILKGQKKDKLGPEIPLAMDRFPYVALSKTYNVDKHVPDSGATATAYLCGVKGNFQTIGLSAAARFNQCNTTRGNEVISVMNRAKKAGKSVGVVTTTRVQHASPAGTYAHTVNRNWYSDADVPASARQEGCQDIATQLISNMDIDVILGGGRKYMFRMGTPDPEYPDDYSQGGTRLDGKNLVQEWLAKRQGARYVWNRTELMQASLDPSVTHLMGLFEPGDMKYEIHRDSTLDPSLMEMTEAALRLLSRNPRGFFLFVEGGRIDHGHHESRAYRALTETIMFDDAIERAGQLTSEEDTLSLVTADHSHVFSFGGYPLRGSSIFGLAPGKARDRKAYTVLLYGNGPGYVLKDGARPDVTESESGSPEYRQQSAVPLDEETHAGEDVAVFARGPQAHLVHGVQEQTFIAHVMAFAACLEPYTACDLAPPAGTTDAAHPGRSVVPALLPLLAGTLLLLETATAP
Chain of Luciferin 4-monooxygenase (P08659 whole entry): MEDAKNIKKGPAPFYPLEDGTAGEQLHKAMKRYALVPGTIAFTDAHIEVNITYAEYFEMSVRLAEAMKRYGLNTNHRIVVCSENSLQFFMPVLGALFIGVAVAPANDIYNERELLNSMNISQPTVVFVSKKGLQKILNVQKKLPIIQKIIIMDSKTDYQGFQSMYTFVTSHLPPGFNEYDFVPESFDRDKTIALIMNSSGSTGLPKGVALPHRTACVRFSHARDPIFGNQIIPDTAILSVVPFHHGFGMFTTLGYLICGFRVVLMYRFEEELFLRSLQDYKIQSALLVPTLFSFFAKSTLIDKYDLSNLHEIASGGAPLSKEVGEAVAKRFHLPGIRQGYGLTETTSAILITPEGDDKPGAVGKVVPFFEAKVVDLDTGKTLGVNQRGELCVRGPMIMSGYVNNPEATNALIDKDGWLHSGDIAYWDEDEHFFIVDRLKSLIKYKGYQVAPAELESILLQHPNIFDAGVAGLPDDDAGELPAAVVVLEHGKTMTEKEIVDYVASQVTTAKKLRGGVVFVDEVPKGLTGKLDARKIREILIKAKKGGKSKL
Chain of Oxysterols receptor LXR-beta (P55055 whole entry, the tested form may be a part): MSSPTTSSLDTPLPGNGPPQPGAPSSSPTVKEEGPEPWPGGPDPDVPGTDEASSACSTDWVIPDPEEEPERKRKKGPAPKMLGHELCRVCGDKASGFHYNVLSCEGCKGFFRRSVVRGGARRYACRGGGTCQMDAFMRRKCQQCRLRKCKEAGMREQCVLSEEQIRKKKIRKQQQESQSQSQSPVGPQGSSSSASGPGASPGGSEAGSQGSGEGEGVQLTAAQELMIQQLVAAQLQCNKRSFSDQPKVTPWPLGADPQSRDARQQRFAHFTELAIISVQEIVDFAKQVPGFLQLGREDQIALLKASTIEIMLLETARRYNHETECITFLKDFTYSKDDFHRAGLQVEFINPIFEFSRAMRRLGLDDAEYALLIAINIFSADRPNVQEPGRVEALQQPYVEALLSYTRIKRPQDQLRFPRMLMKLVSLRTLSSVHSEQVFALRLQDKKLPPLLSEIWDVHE

`Cc1ccc(S(=O)(=O)N2[C@@H](c3ccccc3)C(C(=O)O)=CC[C@H]2c2ccc(Cl)cc2)cc1`: the AC50 in assay [1] is > 30 µM (inactive).

For the molecule `CCC1=Nc2cc(C(=O)NCCCOC)ccc2Sc2ccccc21`, the EC50 in assay [2] was 8.66 µM (inconclusive); in assay [3] it was 1.07 µM (active); in assay [4], 16.1 µM (active); in [5], 0.127 µM (active); in assay [6], 13.2 µM (active); in assay [7], 5.01 µM (active). The figures for the EC50 in [8] and in assay [9] were 0.754 µM (inconclusive) and 0.944 µM (active), respectively. Moreover, the AC50 in assay [10] was 9.95 µM (active).

As for `Clc1ccc(/C=C/c2nc3ccccc3[nH]2)c(Cl)c1`, the EC50 in assay [2] is 0.55 µM (active); in [4], 7.08 µM (active); in [5] it was 2.85 µM (inconclusive); in assay [11], 0.519 µM (active); in [12] it was 8.31 µM (active); in assay [7], 3.15 µM (active). For the same molecule, the EC50 in assay [15] and in assay [16] was > 67.5 µM (inactive) in each case. The IC50 in assay [13] was 2.85 µM (active); in assay [14] it was 5.78 µM (active).

Consider `CCn1c(=N)c(S(=O)(=O)c2ccccc2)cc2c(=O)n3ccccc3nc21`, for which the EC50 in assay [17] and in [18] was > 300 µM (not active) each time. In assay [19], the AC50 is 1.01 µM (active).

Turning to `CC(C)(C)[S@+]([O-])N1Cc2cc(C(=O)NCc3ccccc3F)nc(-c3cccc(-c4cncnc4)c3)c2[C@@H]1CCO`, the AC50 in assay [20] is > 52 µM (inactive); in [21], 50.8 µM (active).

In the case of `Oc1ccc(C2CCCN(c3ccnc4ccccc34)C2)cc1O` (stereo unspecified), the IC50 in assay [22] is 4.2 µM (active).
